Converted amounts (≈) assume the structure as drawn. Where two headings read alike, the source gives them in different places.
Tests used:
[1] = system: A. baumannii A14; assay: MIC without and with sub-inhibitory polymyxin B (Example 4); assay type: cell-based, Acinetobacter baumannii; conditions: 1st experiment
[2] = system: A. baumannii A489; assay: as above; assay type: cell-based, Acinetobacter baumannii; conditions: for MIC without PB/MIC + PB: A. baumannii A489; for MIC: Acinetobacter baumannii
[3] = system: A. baumannii A489; assay: Preliminary MBC without and with sub-inhibitory polymyxin B (Example 4); assay type: cell-based, Acinetobacter baumannii; conditions: Acinetobacter baumannii, preliminary MBC
[4] = system: A. baumannii A473; assay: as above; assay type: cell-based, Acinetobacter baumannii; conditions: Acinetobacter baumannii, A473, A. baumannii A473, +0.06 μg/ml PB, 2nd experiment, read-out: MBC
Method in brief: (§1)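 Read-out: the minimum concentration at which colonies were reduced by ca. 90% relative to positive control, usually seen as isolated colonies or a clear plate. Plates had been kept 18-20 hours at 37° C beforehand.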

[5] = system: A. baumannii NCTC 13301; assay: as above; assay type: cell-based, Acinetobacter baumannii; conditions: Acinetobacter baumannii
Method in brief: as §1

[6] = system: A. baumannii A390; assay: as above; assay type: cell-based, Acinetobacter baumannii; conditions: Acinetobacter baumannii, A390, A. baumannii A390, +0.06 μg/ml PB, 2nd experiment, read-out: MBC
Method in brief: as §1

[7] = system: A. baumannii A14; assay: as above; assay type: cell-based, Acinetobacter baumannii; conditions: A. baumannii A14, +0.06 μg/ml PB, 2nd experiment
Method in brief: as §1

[8] = system: A. baumannii A401; assay: MIC without and with sub-inhibitory polymyxin B (Example 4); assay type: cell-based, Acinetobacter baumannii; conditions: for MIC: Acinetobacter baumannii
[9] = system: A. baumannii J2; assay: as above; assay type: cell-based, Acinetobacter baumannii; conditions: for MIC without PB/MIC + PB: A. baumannii J2; for MIC: Acinetobacter baumannii
[10] = system: A. baumannii A387; assay: as above; assay type: cell-based, Acinetobacter baumannii; conditions: for MIC without PB/MIC + PB: A. baumannii A387; for MIC: Acinetobacter baumannii
[11] = system: A. baumannii NCTC 13301; assay: as above; assay type: cell-based, Acinetobacter baumannii
[12] = system: A. baumannii ATCC 19606; assay: as above; assay type: cell-based, Acinetobacter baumannii; conditions: A. baumannii ATCC 19606
[13] = system: A. baumannii A14; assay: Preliminary MBC without and with sub-inhibitory polymyxin B (Example 4); assay type: cell-based, Acinetobacter baumannii; conditions: A. baumannii A14; +0.06 μg/ml polymyxin B; preliminary MBC; 1st experiment
[14] = system: Acinetobacter sp. (H064200250); assay: MIC without and with sub-inhibitory polymyxin B (Example 4); assay type: cell-based; conditions: for MIC: Acinetobacter
[15] = system: A. baumannii A329; assay: Preliminary MBC without and with sub-inhibitory polymyxin B (Example 4); assay type: cell-based, Acinetobacter baumannii; conditions: Acinetobacter baumannii, A329, A. baumannii A329, +0.06 μg/ml PB, 2nd experiment, read-out: MBC
[16] = system: A. baumannii A329; assay: MIC without and with sub-inhibitory polymyxin B (Example 4); assay type: cell-based, Acinetobacter baumannii; conditions: A. baumannii A329; +0.06 μg/ml PB; 2nd experiment
[17] = system: A. baumannii NCTC 13301; assay: as above; assay type: cell-based, Acinetobacter baumannii; conditions: +[…] PB, 2nd experiment
[18] = system: A. baumannii A401; assay: Preliminary MBC without and with sub-inhibitory polymyxin B (Example 4); assay type: cell-based, Acinetobacter baumannii; conditions: Acinetobacter baumannii
[19] = system: Acinetobacter sp. (H064200250); assay: as above; assay type: cell-based; conditions: Acinetobacter, preliminary MBC
Method in brief: as §1

[20] = system: A. baumannii A387; assay: as above; assay type: cell-based, Acinetobacter baumannii; conditions: Acinetobacter baumannii
[21] = system: strains of A. baumannii and one strain of Acinetobacter sp.; assay: MIC with sub-inhibitory concentrations (0.25x MIC) of polymyxin B, panel of Acinetobacter strains (Example 4); assay type: cell-based
[22] = system: A. baumannii A473; assay: MIC without and with sub-inhibitory polymyxin B (Example 4); assay type: cell-based, Acinetobacter baumannii; conditions: A. baumannii A473; +0.06 μg/ml PB; 2nd experiment
[23] = system: A. baumannii J2; assay: Preliminary MBC without and with sub-inhibitory polymyxin B (Example 4); assay type: cell-based, Acinetobacter baumannii; conditions: Acinetobacter baumannii, preliminary MBC
[24] = ratio, PB 0.06 μg/ml, 1st experiment

Cc1c(-c2cc(F)c(N)cc2F)ccn2c(=O)c(C(=O)O)cc(C3CC3)c12 [Compound 2, 8-(4-amino-2,5-difluorophenyl)-1-cyclopropyl-9-methyl-4-oxo-4H-quinolizine-3-carboxylic acid]
MIC +0.06 μg/ml PB ([1]; +0.06 μg/ml polymyxin B): ≤0.03 µg/mL | MIC ([1]; Acinetobacter baumannii, 24 h, without polymyxin B, read-out: MIC without PB): 16 µg/mL (≈ 43.2 µM) | MIC without PB/MIC + PB ([1]; ratio, PB 0.06 μg/ml): ≥512 | MIC without PB/MIC + PB ([2]; +[…] PB, 2nd experiment): ≥128 | MIC without PB/MIC + PB ([2]; ratio, PB […], 1st experiment): ≥64 | MIC ([2]; A489, A. baumannii A489, +[…] PB, 2nd experiment, read-out: MIC): ≤ 0.03 µg/mL | MIC ([2]; A489, read-out: MIC +[…] PB, A. baumannii A489, +[…] polymyxin B, 1st experiment): ≤ 0.03 µg/mL | MBC ([3]; A489, A. baumannii A489, +[…] PB, 2nd experiment, read-out: MBC): ≤ 0.03 µg/mL | MBC ([3]; A489, read-out: MBC +[…] PB, A. baumannii A489, +[…] polymyxin B, 1st experiment): ≤ 0.03 µg/mL | MBC [4]: 0.125 µg/mL (≈ 0.338 µM) | MBC ([5]; NCTC13301, A. baumannii NCTC 13301, +[…] PB, preliminary MBC, 2nd experiment, read-out: MBC): ≤ 0.03 µg/mL | MBC ([5]; NCTC13301, read-out: MBC +[…] PB): ≤ 0.03 µg/mL | MBC [6]: 0.06 µg/mL (≈ 0.162 µM) | MBC [7]: 0.06 µg/mL (≈ 0.162 µM) | MIC without PB/MIC + PB ([8]; A baumannii A 401, ratio, PB 0.06 μg/ml, 1st experiment): ≥128 | MIC ([8]; A401, A baumannii A 401, +0.06 μg/ml PB, 2nd experiment, read-out: MIC): ≤ 0.03 µg/mL | MIC ([8]; A401, read-out: MIC +0.06 μg/ml PB, A baumannii A 401, +0.06 μg/ml polymyxin B, 1st experiment): ≤ 0.03 µg/mL | MIC without PB/MIC + PB ([9]; +[…] PB, 2nd experiment): ≥128 | MIC without PB/MIC + PB ([9]; ratio, PB […], 1st experiment): ≥128 | MIC ([9]; J2, A. baumannii J2, +[…] PB, 2nd experiment, read-out: MIC): ≤ 0.03 µg/mL | MIC ([9]; J2, read-out: MIC +[…] PB, A. baumannii J2, +[…] polymyxin B, 1st experiment): ≤ 0.03 µg/mL | MIC without PB/MIC + PB ([10]; +0.06 μg/ml PB, 2nd experiment): ≥32 | MIC without PB/MIC + PB [10, 24]: ≥16 | MIC ([10]; A387, A. baumannii A387, +0.06 μg/ml PB, 2nd experiment, read-out: MIC): ≤ 0.03 µg/mL | MIC ([10]; A387, read-out: MIC +0.06 μg/ml PB, A. baumannii A387, +0.06 μg/ml polymyxin B, 1st experiment): ≤ 0.03 µg/mL | MIC without PB/MIC + PB ([11]; A. baumannii NCTC 13301, ratio, PB […], 1st experiment): ≥512 | MIC ([11]; Acinetobacter baumannii, NCTC13301, read-out: MIC +[…] PB): ≤ 0.03 µg/mL | MIC without PB/MIC + PB ([12]; +0.06 μg/ml PB, 2nd experiment): ≥4 | MIC without PB/MIC + PB [12, 24]: ≥1 | MBC +0.06 μg/ml PB [13]: ≤0.03 µg/mL | MIC without PB/MIC + PB ([14]; Acinetobacter spp. H064200250 (OXA51), +[…] PB, 2nd experiment): ≥128 | MIC without PB/MIC + PB ([14]; Acinetobacter spp. H064200250, ratio, PB […], 1st experiment): ≥128 | MIC ([14]; Acinetobacter spp. H064200250 (OXA51), +[…] PB, 2nd experiment, read-out: MIC): ≤ 0.03 µg/mL | MIC ([14]; read-out: MIC +[…] PB, Acinetobacter spp. H064200250, +[…] polymyxin B, 1st experiment): ≤ 0.03 µg/mL | MBC [15]: 0.5 µg/mL (≈ 1.35 µM) | MIC without PB/MIC + PB [16]: 16 | MIC without PB/MIC + PB ([17]; A. baumannii NCTC 13301): ≥512 | MIC ([17]; Acinetobacter baumannii, NCTC13301, A. baumannii NCTC 13301, read-out: MIC): ≤ 0.03 µg/mL | MBC ([18]; A401, A baumannii A 401, +0.06 μg/ml PB, 2nd experiment, read-out: MBC): ≤ 0.03 µg/mL | MBC ([18]; A401, read-out: MBC +0.06 μg/ml PB, A baumannii A 401, +0.06 μg/ml polymyxin B, 1st experiment): ≤ 0.03 µg/mL | MBC ([19]; Acinetobacter spp. H064200250 (OXA51), +[…] PB, 2nd experiment, read-out: MBC): 0.06 µg/mL (≈ 0.162 µM) | MBC ([19]; read-out: MBC +[…] PB, Acinetobacter spp. H064200250, +[…] polymyxin B, 1st experiment): ≤ 0.03 µg/mL | MBC ([20]; A387, A. baumannii A387, +0.06 μg/ml PB, 2nd experiment, read-out: MBC): ≤ 0.03 µg/mL | MBC ([20]; A387, read-out: MBC +0.06 μg/ml PB, A. baumannii A387, +0.06 μg/ml polymyxin B, 1st experiment): ≤ 0.03 µg/mL | MIC range with PB (0.25x MIC) Oct. 1, 2008 n = 8 ([21]; 1st experiment, […] polymyxin B, ATCC 19606, A329, A390 and A473 not taken): ≤0.03 to 1 µg/mL | MIC range with PB (0.25x MIC) Oct. 14, 2008 n = 11 ([21]; 2nd experiment, 0.06 μg/ml polymyxin B, all strains except the ATCC strain): ≤0.03 to 0.5 µg/mL | MIC without PB/MIC + PB [22]: 64 | MBC ([23]; J2, A. baumannii J2, +[…] PB, 2nd experiment, read-out: MBC): ≤ 0.03 µg/mL | MBC ([23]; J2, read-out: MBC +[…] PB, A. baumannii J2, +[…] polymyxin B, 1st experiment): ≤ 0.03 µg/mL
